Data as given in patent publication US5326879A, “Indole derivatives” (priority 1991, dated 1994).
Like-named read-outs stand apart in the source and are kept apart here.

Experiments:
H^+ /K^+ ATPase = target: T1, H^+ /K^+ ATPase (Sus scrofa, UniProt P19156); assay: H^+ /K^+ ATPase Inhibitory Activity Assay; assay type: biochemical, pig; settings: for inhibition at 20 µg/mL: 20 μg/ml; for inhibition at 10 µg/mL / inhibition at 5 µg/mL: read-out: H^+ /K^+ ATPase % Inhibition
T1 construct: prepared from the stomach of pig; from tissue; host or cells: stomach of pig
Method: The inhibitory activity was determined in the following manner using H^+ /K^+ ATPase prepared from the stomach of pig.
H^+ /K^+ ATPase dilute solution (100 μl, 50 μg as protein) was added to PIPES-tris (pH 6.2) buffer solution (440 μl) containing 4 mM magnesium chloride and 20 mM potassium chloride. Further, 0.1% ethanol solution of nigericin (5 μl) was added. To the solution was added dimethyl sulfoxide (5 μl) and the mixture was incubated at 37° C. for 30 minutes. Then 10 mM PIPES-tris buffer solution (450 μl) containing 4 mM ATP disodium was added to initiate the reaction. 30 minutes later, 50% trichloroacetic acid (1 ml) was added to cease the reaction. […] On the other hand, a similar determination was carried out in the absence of potassium chloride, at which the reading of the absorbance is taken as C2. […] In that case, the readings of the absorbance in the presence and absence of potassium chloride are taken as T1 and T2, respectively.
% Inhibition (I) of the inhibiting substance (test compound) is calculated by the following equation.

[1] = background statement; cited from earlier work

T1 sequence (P19156 2-1034 limits assumed): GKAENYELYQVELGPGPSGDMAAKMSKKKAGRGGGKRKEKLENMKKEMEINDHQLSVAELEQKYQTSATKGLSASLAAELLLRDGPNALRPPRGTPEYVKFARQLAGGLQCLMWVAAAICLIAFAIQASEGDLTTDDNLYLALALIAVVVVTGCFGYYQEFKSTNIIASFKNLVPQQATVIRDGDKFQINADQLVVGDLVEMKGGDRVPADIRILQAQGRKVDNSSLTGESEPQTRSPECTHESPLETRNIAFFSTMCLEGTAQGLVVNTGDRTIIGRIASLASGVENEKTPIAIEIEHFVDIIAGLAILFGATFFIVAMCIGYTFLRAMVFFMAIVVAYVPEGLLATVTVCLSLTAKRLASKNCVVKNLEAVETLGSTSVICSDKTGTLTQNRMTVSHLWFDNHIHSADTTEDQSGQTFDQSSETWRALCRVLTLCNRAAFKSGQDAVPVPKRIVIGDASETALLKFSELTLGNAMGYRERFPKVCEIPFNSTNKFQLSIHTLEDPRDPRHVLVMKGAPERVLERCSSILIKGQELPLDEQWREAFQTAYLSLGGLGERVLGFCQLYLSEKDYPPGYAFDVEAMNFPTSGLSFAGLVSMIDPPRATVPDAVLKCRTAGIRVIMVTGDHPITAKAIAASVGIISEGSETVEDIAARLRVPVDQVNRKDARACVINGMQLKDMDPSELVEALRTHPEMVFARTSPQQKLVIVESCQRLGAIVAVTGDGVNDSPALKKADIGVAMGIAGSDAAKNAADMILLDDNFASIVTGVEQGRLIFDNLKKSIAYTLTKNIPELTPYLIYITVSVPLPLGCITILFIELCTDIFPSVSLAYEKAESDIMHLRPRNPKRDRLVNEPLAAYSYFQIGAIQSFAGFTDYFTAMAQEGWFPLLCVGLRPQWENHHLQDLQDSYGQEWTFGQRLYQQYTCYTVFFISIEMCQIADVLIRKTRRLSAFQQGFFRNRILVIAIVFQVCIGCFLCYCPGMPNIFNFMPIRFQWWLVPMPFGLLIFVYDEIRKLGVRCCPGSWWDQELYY
T1 sequence (P18434 whole entry partner): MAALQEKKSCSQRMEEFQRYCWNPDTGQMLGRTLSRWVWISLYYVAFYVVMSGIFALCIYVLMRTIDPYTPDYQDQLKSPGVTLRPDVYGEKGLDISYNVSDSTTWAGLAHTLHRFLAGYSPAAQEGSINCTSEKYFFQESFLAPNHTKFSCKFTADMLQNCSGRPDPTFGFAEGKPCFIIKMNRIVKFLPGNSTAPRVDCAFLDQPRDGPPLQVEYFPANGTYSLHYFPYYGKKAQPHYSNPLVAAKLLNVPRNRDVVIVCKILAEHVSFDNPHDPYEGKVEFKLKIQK

| SMILES | inhibition at 20 µg/mL (H^+ /K^+ ATPase) [%] | inhibition at 10 µg/mL (H^+ /K^+ ATPase; 10 μg/ml) [%] | also measured |
| --- | --- | --- | --- |
| c1ccc2c(CCN3CCCCC3)c(CCCCCCc3[nH]c4ccccc4c3CCN3CCCCC3)[nH]c2c1 [Example 1, 3,3'-Di(2-piperidinoethyl)-2,2'-hexamethylenediindole] | 5 |  |  |
| c1ccc2[nH]c(CCCCCCc3[nH]c4ccccc4c3CCN3CCCCC3)cc2c1 [Example 2, 3-(2-Piperidinoethyl)-2,2'-hexamethylenediindole] |  | 84 |  |
| c1ccc(CCNCCc2c(CCCCc3cc4ccccc4[nH]3)[nH]c3ccccc23)cc1 [Example 3, 3-(2-Phenethylaminoethyl)-2,2'-tetramethylenediindole] |  | 97 |  |
| c1ccc2[nH]c(CCCCCCCCc3[nH]c4ccccc4c3CCN3CCCCC3)cc2c1 [Example 4, 3-(2-Piperidinoethyl)-2,2'-octamethylenediindole] |  | 91 |  |
| c1ccc2[nH]c(CCCCc3[nH]c4ccccc4c3CCN3CCOCC3)cc2c1 [Example 5, 3-(2-Morpholinoethyl)-2,2'-tetramethylenediindole] | 68 |  |  |
| c1ccc(CNCCc2c(CCCCc3[nH]c4ccccc4c3CCNCc3ccccc3)[nH]c3ccccc23)cc1 [Example 7, 3,3'-Di(2-benzylaminoethyl)-2,2'-tetramethylenediindole] | 76 |  |  |
| c1ccc(CNCCc2c(CCCCc3cc4ccccc4[nH]3)[nH]c3ccccc23)cc1 [Example 8, 3-(2-Benzylaminoethyl)-2,2'-tetramethylenediindole] | 100 |  |  |
| c1ccc(CCNCCc2c(CCCCc3[nH]c4ccccc4c3CCNCCc3ccccc3)[nH]c3ccccc23)cc1 [Example 13, 3,3'-Di(2-phenethylaminoethyl)-2,2'-tetramethylenediindole] |  |  | inhibition at 5 µg/mL (H^+ /K^+ ATPase; 5 μg/ml): 74% |
| c1ccc2[nH]c(CCCCc3[nH]c4ccccc4c3CCNCCc3c[nH]c4ccccc34)cc2c1 [Example 16, 3-(2-(2-(3-Indolyl)ethylamino)ethyl)-2,2'-tetramethylenediindole] |  |  | inhibition at 5 µg/mL (H^+ /K^+ ATPase; 5 μg/ml): 71% |
| CN(CCc1c(CCCCc2[nH]c3ccccc3c2CCN(C)Cc2ccccc2)[nH]c2ccccc12)Cc1ccccc1 [Example 17, 3,3'-Di(2-(N-methylbenzylamino)ethyl)-2,2'-tetramethylenediindole] |  |  | inhibition at 5 µg/mL (H^+ /K^+ ATPase): 38% |
| CN(CCc1c(CCCCc2cc3ccccc3[nH]2)[nH]c2ccccc12)Cc1ccccc1 [Example 18, 3-(2-(N-Methylbenzylamino)ethyl)-2,2'-tetramethylenediindole] |  |  | inhibition at 10 µg/mL (H^+ /K^+ ATPase): 100% |
| c1ccc(CCCNCCc2c(CCCCc3[nH]c4ccccc4c3CCNCCCc3ccccc3)[nH]c3ccccc23)cc1 [Example 19, 3,3'-Di(2-(3-phenylpropylamino)ethyl)-2,2'-tetramethylenediindole] |  | 98 |  |
| COc1ccc2[nH]c([S+]([O-])Cc3ncc(C)c(OC)c3C)nc2c1 (stereo not shown) [Omeprazole, omeprazole] |  |  | occurrence of side effect (omeprazole) [1]: occurrence of carcinoid |
